# Test system: β glucosidase
# Assay: Effect of FeSO4 on β glucosidase
# Type: biochemical, Rauvolfia serpentina
# Details: for Fold activity enhanced: relative to 0 mM
# Procedure: Rauvolfia serpentina (Sarpgandha) plants were raised from root cuttings at the glass house of Central Institute of Medicinal and Aromatic Plants (CIMAP), Lucknow by following standard agronomic practices. The extraction of the glucosidase enzyme was optimized with respect to buffer, pH, protecting and stabilizing agents to obtain maximum extractable activity. All the operations of enzyme isolation were carried out at 0-4° C. unless specified otherwise. The extraction medium of present invention also relates to a process for the extraction of a B glucosidase from plant tissues from a natural source and useful for the cleaving of β-1,4 linkage of PNPG, said process comprising: homogenizing the plant tissue in a cold extraction medium (1 g tissue/3 ml). Flowers of Rauvolfia serpentina were homogenized in 100 mM K-phosphate buffer (pH 6.0) including 10 mM β-Mercapto ethanol and 2 mM E.D.T.A. (Ethylene Diamine Tetra Acetic Acid). The tissue homogenate was centrifuged at 12,000×g for 30 min at 4° C. and the clear supernatant was collected. Assays specific for the determination of optimum pH, optimum temperature, stability and activation were performed.
# Enzyme activity was assayed using the modified method described by Stevens et al, assay mixture in a total volume of 200 μL contained 2.5 mM p-nitrophenyl β-D-glucopyranoside in 100 mM Citrate-Phosphate buffer (pH 5) at defined temperatures with 10 μL of enzyme preparation. After 15 min of incubation time the reaction was stopped by adding 800 μL of 1M Sodium carbonate and the absorbance of p-nitrophenol (the product of reaction) was measured at wavelength 405 nm.
# Calculation of Units: The enzyme activity was expressed in terms of μmole of p-nitrophenol formed per minute using the molar extinction coefficient (E) 18,350 m^−1 cm^−1 [Estibalitz, O., Richard, O. A., and Ioannis, Z., 2001. The role of β-glucosidase in biosynthesis of 2,5-dimethyl-4-hydroxy-3 (2H)-furanone in strawberry. Flavour and Fragrance J., 16: 81-84.]
compound,measurement,setting,value
O=S(=O)([O-])[O-].[Fe+2] [FeSO4],β glucosidase Activity (I.U.),FeSO4 Conc. 1 mM,71.93 I.U.
same,Fold activity enhanced,FeSO4 Conc. 1 mM,1.74 Fold
same,β glucosidase Activity (I.U.),FeSO4 Conc. 5 mM,335.69 I.U.
same,Fold activity enhanced,FeSO4 Conc. 5 mM,8.11 Fold
same,β glucosidase Activity (I.U.),FeSO4 Conc. 10 mM,627.79 I.U.
same,Fold activity enhanced,FeSO4 Conc. 10 mM,15.16 Fold
same,effect of FeSO4 on enzyme activity,in words,activation

# Reference: patent US20070212745A1, “BETA-GLUCOSIDASE AND A PROCESS FOR EXTRACTION THEREOF” (priority 2006, published 2007)
